Laboratory results from patent EP4763839A1 (Pamplona Therapeutics (Shenzhen) Co., Ltd., priority 2023, dated 2025).
Where two headings read alike, the source gives them in different places.

Target: T1, IRAK4 (Homo sapiens, UniProt Q9NWZ3)
T1 sequence (Q9NWZ3 1-460): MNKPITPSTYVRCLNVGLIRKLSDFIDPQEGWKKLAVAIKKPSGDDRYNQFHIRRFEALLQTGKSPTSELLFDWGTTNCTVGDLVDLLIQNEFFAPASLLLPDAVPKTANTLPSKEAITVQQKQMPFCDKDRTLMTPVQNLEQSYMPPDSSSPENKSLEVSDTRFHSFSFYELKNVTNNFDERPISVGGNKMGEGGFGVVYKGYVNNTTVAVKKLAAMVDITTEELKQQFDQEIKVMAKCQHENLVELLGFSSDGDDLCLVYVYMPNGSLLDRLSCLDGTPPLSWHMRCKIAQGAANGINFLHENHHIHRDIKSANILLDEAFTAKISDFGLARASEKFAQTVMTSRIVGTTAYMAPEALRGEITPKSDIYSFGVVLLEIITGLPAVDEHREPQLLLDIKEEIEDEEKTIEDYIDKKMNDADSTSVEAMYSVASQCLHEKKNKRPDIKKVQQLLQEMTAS
Assay: Assay for inhibitory effect of compound on IRAK4 kinase activity (KinEASE-STK S1 HTRF kit)
Type: biochemical
Protocol: Example 1: Kinase activity assay
Assay for inhibitory effect of compound on IRAK4 kinase activity
The inhibitory effect of the compound on IRAK4 kinase activity was measured using the KinEASE-STK S1 serine/threonine kinase kit (Cisbio). The specific method was as follows: the compound was dissolved in dimethyl sulfoxide and then subjected to 3-fold serial dilution in dimethyl sulfoxide, yielding final test compound concentrations in the reaction system ranging from 5,000 nM to 0.0254 nM. The kinase at a final concentration of 8 nM was added, followed by incubation at rt for 15 minutes. Subsequently, biotinylated STK1 substrate at a final concentration of 400 nM and adenosine triphosphate (ATP) at a final concentration of 80 µM were sequentially added, and the mixture was incubated at 37°C for 90 minutes. Then, the reaction was terminated by adding an anti-phosphoserine/threonine antibody conjugated with a europium cryptate and streptavidin-conjugated XL665 to the reaction system. After incubation at rt for 1 hour, the fluorescence intensity at emission wavelengths of 620 nm and 665 nm for each well was measured using an EnVision microplate reader (PerkinElmer) in HTRF mode. The ratio value was calculated using the formula: Ratio = (665 nm/620 nm)×10^4 The inhibition rate of the compound at each concentration was calculated using the formula: Inhibition% = [1-(Signal sample-Signal min)/(Signal max-Signal min)]×100. Subsequently, the dose-response curve was fitted by nonlinear curve fitting of log concentration versus inhibition rate using Fit Modela (205) in XLfit to give the IC50 value of the compound for inhibition of protein activity.

[1] = kinase 8 nM, ATP 80 µM, 37°C 90 minutes, read-out: IRAK4 HTRF IC50

SMILES | IC50 [1] [nM] | IC50 [nM]
O=C(Nc1cn(-c2ccccc2)nc1C(=O)C(F)F)c1cccc(-c2ccn[nH]2)n1 [Compound A244, N-(3-(2,2-difluoroacetyl)-1-phenyl-1H-pyrazol-4-yl)-6-(1H-pyrazol-5-yl)picolinamide] | < 100 | –
O=C(Nc1cn(-c2ccccc2)nc1C1CCN1)c1cccc(-c2ccn[nH]2)n1 (centres unmarked) [Compound A245, N-(3-(Azetidin-2-yl)-1-phenyl-1H-pyrazol-4-yl)-6-(1H-pyrazol-5-yl)picolinamide] | > 1000 | –
CNC(=O)c1nn(-c2ccccc2)cc1NC(=O)c1cccc(-c2ccn[nH]2)n1 [Compound A246, N-(3-(Methylcarbamoyl)-1-phenyl-1H-pyrazol-4-yl)-6-(1H-pyrazol-5-yl)picolinamide] | < 100 | –
CC(C)NC(=O)c1nn(-c2ccccc2)cc1NC(=O)c1cccc(-c2ccn[nH]2)n1 [Compound A247, N-(3-(Isopropylcarbamoyl)-1-phenyl-1H-pyrazol-4-yl)-6-(1H-pyrazol-5-yl)picolinamide] | 100 to 1000 | –
CNS(=O)(=O)c1nn(-c2ccccc2)cc1NC(=O)c1cccc(-c2ccn[nH]2)n1 [Compound A248, N-(3-(N-Methylsulfamoyl)-1-phenyl-1H-pyrazol-4-yl)-6-(1H-pyrazol-5-yl)picolinamide] | < 100 | –
CC(C)NS(=O)(=O)c1nn(-c2ccccc2)cc1NC(=O)c1cccc(-c2ccn[nH]2)n1 [Compound A249, N-(3-(N-Isopropylsulfamoyl)-1-phenyl-1H-pyrazol-4-yl)-6-(1H-pyrazol-5-yl)picolinamide] | 100 to 1000 | –
O=C(Nc1cn(-c2ccccc2)nc1C(=O)NC1CC1)c1cccc(-c2ccn[nH]2)n1 [Compound A250, N-(3-(Cyclopropylcarbamoyl)-1-phenyl-1H-pyrazol-4-yl)-6-(1H-pyrazol-5-yl)picolinamide] | < 100 | –
O=C(Nc1cn(-c2ccccc2)nc1C(=O)NC1CC1(F)F)c1cccc(-c2ccn[nH]2)n1 (centres unmarked) [Compound A251, N-(3-((2,2-Difluorocyclopropyl)carbamoyl)-1-phenyl-1H-pyrazol-4-yl)-6-(1H-pyrazol-5-yl)picolinamide] | < 100 | –
O=C(Nc1cn(C2CCC2)nc1C(=O)NC1CC1)c1cccc(-c2ccn[nH]2)n1 [Compound A252, N-(1-Cyclobutyl-3-(cyclopropylcarbamoyl)-1H-pyrazol-4-yl)-6-(1H-pyrazol-5-yl)picolinamide] | < 100 | –
O=C(Nc1cn(C2CNC2)nc1C(=O)NC1CC1)c1cccc(-c2ccn[nH]2)n1 [Compound A253, N-(1-(Azetidin-3-yl)-3-(cyclopropylcarbamoyl)-1H-pyrazol-4-yl)-6-(1H-pyrazol-5-yl)picolinamide] | < 100 | –
O=C(Nc1cn(C2CCNC2)nc1C(=O)NC1CC1)c1cccc(-c2ccn[nH]2)n1 (centres unmarked) [Compound A254, N-(3-(Cyclopropylcarbamoyl)-1-(pyrrolidin-3-yl)-1H-pyrazol-4-yl)-6-(1H-pyrazol-5-yl)picolinamide] | 100 to 1000 | –
O=C(Nc1cn(C2CCCCC2)nc1C(=O)NC1CC1)c1cccc(-c2ccn[nH]2)n1 [Compound A255, N-(1-Cyclohexyl-3-(cyclopropylcarbamoyl)-1H-pyrazol-4-yl)-6-(1H-pyrazol-5-yl)picolinamide] | 100 to 1000 | –
O=C(Nc1cn(C2CCNCC2)nc1C(=O)NC1CC1)c1cccc(-c2ccn[nH]2)n1 [Compound A256, N-(3-(Cyclopropylcarbamoyl)-1-(piperidin-4-yl)-1H-pyrazol-4-yl)-6-(1H-pyrazol-5-yl)picolinamide] | < 100 | –
O=C(Nc1cn(-c2cccnc2)nc1C(=O)NC1CC1)c1cccc(-c2ccn[nH]2)n1 [Compound A257, N-(3-(Cyclopropylcarbamoyl)-1-(pyridin-3-yl)-1H-pyrazol-4-yl)-6-(1H-pyrazol-5-yl)picolinamide] | < 100 | –
NC(=O)c1nn(C23CC(C2)C3)cc1NC(=O)c1cccc(C(F)(F)F)n1 [Compound A258] | 100 to 1000 | –
CC(C)(O)c1nn(C2CCCCC2)cc1NC(=O)c1ccc2cc(C#N)cnn12 [Compound A259, 3-cyano-N-(1-cyclohexyl-3-(2-hydroxypropan-2-yl)-1H-pyrazol-4-yl)pyrrolo[1,2-b]pyridazine-7-carboxamide] | 100 to 1000 | –
NS(=O)(=O)c1nn(C2CCCCC2)cc1NC(=O)c1cccc(-c2ccn[nH]2)n1 [Compound A260, N-(1-Cyclohexyl-3-sulfamoyl-1H-pyrazol-4-yl)-6-(1H-pyrazol-5-yl)picolinamide] | < 100 | –
NS(=O)(=O)c1nn(-c2ccccc2)cc1NC(=O)c1cccc(-n2ccnc2)n1 [Compound A261, 6-(1H-Imidazol-1-yl)-N-(1-phenyl-3-sulfamoyl-1H-pyrazol-4-yl)picolinamide] | < 100 | –
NS(=O)(=O)c1nn(C2CCC2)cc1NC(=O)c1ccn2ncc(-c3ccn[nH]3)c2n1 [Compound A278, N-(1-cyclobutyl-3-sulfonamide-1H-pyrazol-4-yl)-3-(1H-pyrazol-5-yl)pyrazolo[1,5-a]pyrimidine-5-carboxamide] | – | < 100

Further lines, with some results ahead:

IC50 [1] [nM] | SMILES | IC50 [nM]
< 100 | COc1nn(-c2ccccc2)cc1NC(=O)c1cccc(C(=O)c2cn[nH]c2)n1 [Compound A262, N-(3-methoxy-1-phenyl-1H-pyrazol-4-yl)-6-(1H-pyrazole-4-carbonyl)picolinamide] | –
100 to 1000 | COc1nn(C2CCCCC2)cc1NC(=O)c1cccc(-c2ccn[nH]2)n1 [Compound A263, N-(1-Cyclohexyl-3-methoxy-1H-pyrazol-4-yl)-6-(1H-pyrazol-5-yl)picolinamide] | –
100 to 1000 | CC(F)(F)c1cccc(C(=O)Nc2cn(-c3ccccc3)nc2C(N)=O)n1 [Compound A264] | –
100 to 1000 | CC(F)(F)c1cccc(C(=O)Nc2cn(-c3ccccc3)nc2C(=O)NC2CC2)n1 [Compound A265, N-(3-(Cyclopropylcarbamoyl)-1-phenyl-1H-pyrazol-4-yl)-6-(1,1-difluoroethyl)picolinamide] | –
100 to 1000 | N#Cc1cnn2c(C(=O)Nc3cn(C4CCCCC4)nc3C(F)F)ccc2c1 [Compound A266, 3-cyano-N-(1-cyclohexyl-3-(difluoromethyl)-1H-pyrazol-4-yl)pyrrolo[1,2-b]pyridazine-7-carboxamide] | –
100 to 1000 | O=C(Nc1cn(C2CCC2)nc1C(F)F)c1ccn2ncc(-c3ccn[nH]3)c2n1 [Compound A279, N-(1-cyclobutyl-3-(difluoromethyl)-1H-pyrazol-4-yl)-3-(1H-pyrazol-5-yl)pyrazolo[1,5-a]pyrimidine-5-carboxamide] | –
100 to 1000 | NC(=O)c1nn(C2CCC2)cc1NC(=O)c1ccn2ncc(-c3ccn[nH]3)c2n1 [Compound A280, N-(3-carbamoyl-1-cyclobutyl-1H-pyrazol-4-yl)-3-(1H-pyrazol-5-yl)pyrazolo[1,5-a]pyrimidine-5-carboxamide] | –
100 to 1000 | CC(C)(O)c1nn(C2CCC2)cc1NC(=O)c1ccn2ncc(-c3ccn[nH]3)c2n1 [Compound A281, N-(1-cyclobutyl-3-(2-hydroxypropan-2-yl)-1H-pyrazol-4-yl)-3-(1H-pyrazol-5-yl)pyrazolo[1,5-a]pyrimidine-5-carboxamide] | –
100 to 1000 | O=C(NC1CC1)c1nn(C2CCC2)cc1NC(=O)c1cnn2ccc(-c3ccn[nH]3)nc12 [Compound A286, N-(1-cyclobutyl-3-(cyclopropylcarbamoyl)-1H-pyrazol-4-yl)-5-(1H-pyrazol-5-yl)pyrazolo[1,5-a]pyrimidine-3-carboxamide] | –
100 to 1000 | O=C(NC1CC1)c1nn(C2CCC2)cc1NC(=O)c1cnn2ccc(-c3cn[nH]c3)nc12 [Compound A287] | –
< 100 | COc1nn(C2CCC2)cc1NC(=O)c1cnn2ccc(-c3ccn[nH]3)nc12 [Compound A288, N-(1-cyclobutyl-3-methoxy-1H-pyrazol-4-yl)-5-(1H-pyrazol-5-yl)pyrazolo[1,5-a]pyrimidine-3-carboxamide] | –
< 100 | COc1nn(C2CCC2)cc1NC(=O)c1cnn2ccc(-c3cn[nH]c3)nc12 [Compound A289, N-(1-cyclobutyl-3-methoxy-1H-pyrazol-4-yl)-5-(1H-pyrazol-4-yl)pyrazolo[1,5-a]pyrimidine-3-carboxamide] | –
100 to 1000 | CC(C)(O)c1nn(C2CCC2)cc1NC(=O)c1cnn2ccc(-c3ccn[nH]3)nc12 [Compound A290, N-(1-cyclobutyl-3-(2-hydroxypropan-2-yl)-1H-pyrazol-4-yl)-5-(1H-pyrazol-5-yl)pyrazolo[1,5-a]pyrimidine-3-carboxamide] | –
